Measurements reported in the SangsterLogP compilation.

Assays:
[1] = method code SF-AS, from DOI: 10.1002/qsar.19880070104; details: pH 7.4

SMILES	logD [1]	logP
Cc1cccc(C)c1OCc1cccc(CN2CCOCC2)c1	3.74	
Cc1cccc(C)c1OC(=O)c1ccc(CN2CCCCC2)cc1		3.5
Cc1cccc(C)c1OC(=O)NCc1ccccc1CN1CCOCC1	3.54	
Cc1cccc(C)c1OC(=O)OCc1cccc(CN2CCOCC2)c1	3.47	
Cc1cccc(C)c1OC(=O)c1ccccc1CN1CCCC1		3.09
Cc1cccc(C)c1OC(=O)c1cccc(CN2CCCC2)c1		3.18
Cc1cccc(C)c1OC(=O)c1ccccc1CN1CCOCC1	3.48	
CCN(CC)Cc1cccc(C(=O)Oc2c(C)cccc2C)c1		2.99
Cc1cccc(C)c1OCc1ccccc1CN1CCOCC1		4.16
Cc1cccc(C)c1OC(=O)NCc1ccc(CN2CCOCC2)cc1	2.7	
Cc1cccc(C)c1OC(=O)NCc1cccc(CN2CCOCC2)c1	2.91	

Next, values leading:

logD [1]	logP	SMILES
3.34		Cc1cccc(C)c1OC(=O)OCc1ccc(CN2CCOCC2)cc1
2.8		Cc1cccc(C)c1NC(=O)OCc1ccccc1CN1CCOCC1
3.91		Cc1cccc(C)c1OC(=O)c1cccc(CN2CCOCC2)c1
3.76		Cc1cccc(C)c1OCc1ccc(CN2CCOCC2)cc1
1.85		Cc1cccc(C)c1NC(=O)OCc1cccc(CN2CCOCC2)c1
	1.76	Cc1cccc(C)c1NC(=O)c1ccc(CN2CCOCC2)cc1
2.46		Cc1cccc(C)c1NC(=O)c1ccccc1CN1CCOCC1
3.92		Cc1cccc(C)c1OC(=O)c1ccc(CN2CCOCC2)cc1
	3.2	Cc1cccc(C)c1OC(=O)c1ccc(CN2CCCC2)cc1
2.2		Cc1cccc(C)c1NC(=O)OCc1ccc(CN2CCOCC2)cc1
